Experimental data published in US7301020B2, “Macrolide analogs and methods for identifying same” (priority 2003, dated 2007).

Tests used:
F-actin = biological target: T1, F-actin (Oryctolagus cuniculus, UniProt P68135); test: KabC binding to and severing of Prodan-F-actin (fluorescence spectra, SDS-PAGE of supernatant and pellet); format: biochemical, rabbit
T1 construct: F-actin is purified from rabbit skeletal muscle using a standard protocol; Prodan (Acrylodan) fluorophore on Cys374 (in the fluorescence spectra); from tissue; host or cells: rabbit skeletal muscle
Procedure: FIG. 6: Fluorescence emission spectra of 5 μM Prodan-F-actin in the absence (a), and after selected times following the addition of KabC to 5 μM: (b), immediately after the addition of KabC (the emission spectrum is acquired in 30 seconds); (c), 15 min; (d), 39 min; (e), The spectrum of an equivalent concentration of the KabC-Prodan-G-actin complex. Inset: SDS-PAGE Analysis of KabC binding to F-actin. 100 μL of F-actin (10 μM) in […] was treated each with KabC (a: 0; b: 1; c: 4; d: 10 μM) for 30 min and airfuged at 120,000 g for another 30 min. Supernatant (S) and pellet (P) of each sample was run on SDS-PAGE.
F-actin: F-actin is purified from rabbit skeletal muscle using a standard protocol developed in the PI's laboratory (Marriott et al, 1988). The purity and activity of actin is analyzed using SDS-PAGE, polymerization assays and a motility assay (Heidecker et al, 1995).
The fluorescence emission of Prodan-F-actin is also immediately quenched upon adding KabC ([…]). However, a particularly attractive feature of the Prodan-actin probe is that the average energy of the fluorescence emission changes appreciably following the binding of ABPs, macrolides and in the transition of F-actin to G-actin. Careful analysis of the spectrum can yield information on the relative amounts of up to 4 different states in equilibrium (Marriott et al, 1988). This feature is useful to help understand how KabC binds to Prodan-F-actin. The addition of an equimolar amount of KabC to Prodan-F-actin leads to an immediate decrease in the fluorescence quantum yield, which is followed by a far slower red-shift in the average energy of the emission spectrum over time. […] In this experiment, the monomeric actin (supernatant, S) and F-actin (pellet, P) fractions of KabC treated F-actin are separated after a 60-minute incubation by high-speed centrifugation (120,000 g) and quantified by Coumassie staining of the acrylamide gel. […]

Prodan-G-actin = Prodan-G-actin (Oryctolagus cuniculus, UniProt P68135); test: Competition-binding assay with GS1 and CapG on Prodan-G-actin; set-up: F-actin is purified from rabbit skeletal muscle using a standard protocol; from tissue; host or cells: actin from rabbit skeletal muscle; CapG and GS1 expressed in E. coli M15; species or system rabbit
Procedure: FIG. 4: (A) CapG: (a), Prodan-G-actin (100 nM), (b), Prodan-G-actin-CapG; (c), same as (b) in the presence of 0.2 μM KabC; (B); GS1: (a), Prodan-G-actin 100 nM; (b), Prodan-G-actin-GS1; (c), same as (b) in the presence of 0.2 μM KabC.
Characterization of actin binding proteins: The actin-binding properties of the ABPs used in this study are evaluated from changes in the fluorescence emission spectrum of Prodan-actin and actin polymerization assays as described by Marriott et al (1988).
Trisoxazolemacrolides specifically compete with GS1 for the (+)-end binding site on actin. Gelsolin, a monomeric 80 kD cytoskeleton protein composed of six domains interacts with actin filaments in a complex, Ca^2+-dependent manner (Janmey et al, 1985; Burtnick et al, 1997). Gelsolin exerts two major effects once bound to an actin filament: first it severs the filament and second it remains tightly bound to the severed (+)-end and serves to block, or cap, further growth. […] Structural analyses of G-actin complexes with GS1 (McLaughlin et al, 1993) and KabC show these unrelated molecules bind to G-actin through common contact sites that include a patch of hydrophobic residues on the surface between sub-domains 1 and 3 and within the cleft that forms between the interface of sub-domains 1 and 3 (McLaughlin et al, 1993;). GS1 binding to Prodan-G-actin shifts the average energy of the fluorescence emission to the red and is accompanied by a decrease in the quantum yield (FIG. 4A) but not to the extent seen in the KabC-G-actin complex (FIG. 2).
Trisoxazolemacrolides specifically compete with CapG for the (+)-end binding site on actin. CapG, a Ca^2+-dependent, (+)-end actin filament capping protein, is found at high levels in macrophage cells where it regulates membrane ruffling and cell protrusions associated with phagocytosis and motility (Botelho et. al., 2000). […] The Ca^2+-dependent binding of CapG to Prodan-G-actin is accompanied by a dramatic blue-shift in the emission spectrum and an increase in quantum yield (FIG. 4B, curve b). The difference in fluorescence emission spectra between free and CapG-bound Prodan-G-actin is used to quantify the parameters for this binding reaction. The G-actin-CapG complex exists as a 1:1 complex and has a dissociation constant of 100 nM (data not shown). […] This conclusion is consistent with a comparison of high-resolution structures of G-actin with GS1 and KabC and a preliminary analysis of a 2.8 Angstrom structure of a CapG mutant (Vorobiev et al, PDB database, 2002). […] However the emission properties of the CapG-Prodan-G-actin complex are unaffected by the binding of LatA, DNAse and thymosin β4 (Tβ4), which is consistent with some structural data showing that these sequestering molecules bind closer to the ATP pocket and DNAse binding loop (Kabsch et al, 1990).

Kabiramide C [KabC]
F-actin severing (F-actin): single and slow severing event
actin fraction by SDS-PAGE after centrifugation (F-actin; F-Actin:KabC 10:1 and 5:2): a significant fraction of the total actin exists as F-actin
depolymerization of F-actin (F-actin; sub-stoichiometric KabC (1/10th)): not depolymerized
displacement of CapG from Prodan-G-actin (Prodan-G-actin): displace CapG from Prodan-G-actin in a Ca^2+-independent manner
stability of final G-actin-KabC complex (Prodan-G-actin; dilution and competition-binding studies): extremely stable and does not dissociate at a concentration below the equilibrium constant
displacement of GS1 from Prodan-G-actin (Prodan-G-actin; presence of EGTA): displaces GS1
